# Measured values published in patent publication US10702568B2, “Compositions containing silymarin and sulfoalkyl ether cyclodextrin and methods of using the same” (UNIVERSITY OF KANSAS, priority 2015, dated 2020).
# Experiments:
# [1] = Solubility of silymarin components in water (Example 10, HPLC); type: physicochemical; conditions: water
# Procedure: (§1) Silymarin components including taxifolin, silydianin, silychristin, silybin A, silybin B, isosilybin A, and isosilybin B were tested for their solubility in water and also for their Log D value. The silymarin extract was obtained from Indena® (Indena Code: 9065110). The HPLC system consisted of Waters system equipped with performance PLUS inline degasser along dual λ absorbance detector set at 288 nm. The chromatographic separation of silymarin constituents was achieved on a Symmetry Shield RP18 column (150×4.6 mm, 5 μm); which was maintained at ambient room temperature conditions. The binary mobile phase system consisted of reservoir A (methanol: 10 mM ammonium acetate pH 5 [65:35 v/v]) and reservoir B (10 mM ammonium acetate, pH 5) were run as per gradient program (0-1.9 min: 25% A and 75% B; 2.0-14.9 min: 80% A and 20% B and 15-37.9 min: 80% A and 20% B and 38-40 min: 25% A and 75% B). The flow rate was 1 mL/min throughout the analytical run.
# physchem = conditions: 25 °C, water, thermodynamic from solid, Solubility (mg/ml) of flavonolignan components of silymarin
# Procedure: CAPTISOL® was dissolved in water to form four solutions with a CAPTISOL® concentration of 0.05 mol/L, 0.1 mol/L, 0.2 mol/L, and 0.3 mol/L respectively. 12 mg of silymarin powder (Sigma Aldrich) was added to 1 mL of each of the four CAPTISOL® solutions on Day 1, another 12 mg Silymarin powder was added on Day 3, and 19-22 mg Silymarin powder was added on Day 7 to ensure that silymarin reached its maximum solubility in each solution. The solutions were stirred in a water bath at 25° C. The solutions were then centrifuged prior to sampling. The supernatant was diluted in MeOH in preparation for HPLC assay.
# A reference standard was prepared by mixing silymarin with methanol to provide a methanol solution with a silymarin concentration of 0.1 mg/ml.
# HPLC was used to measure the relative concentrations of the different components of silymarin in each sample solution following the method described in Kuki et al., (2012) Chromatogram 75:175-180. The relative concentration of each component of silymarin was measured by comparing the normalized peak area units with that of the standard reference measured by the UV data at 288 nm and assuming equivalent extinction coefficients for all components.
# The relative molar amounts of the ten flavonolignan components of silymarin were calculated by dividing the normalized peak area of each component in a sample by the total normalized peak area of the sample.
# The concentration of each flavonolignan component of silymarin was calculated from the peak areas in Tables 1a and 1b and the total concentration of silymarin (0.1 mg/ml) in the reference sample, assuming constant extinction coefficients for each component.
# [2] = Silymarin solubility in water, CAPTISOL® solution and γ-cyclodextrin solution (Example 2, HPLC); type: physicochemical; conditions: water, thermodynamic from solid, Solubility (mg/ml) of components of silymarin
# Procedure: The solutions were centrifuged for 10 min at 13K rpm. An aliquot of the supernatant was diluted 1:5 for Water, 1:25 for γ-Cyclodextrin and 1:100 for both 0.20 M CAPTISOL® and 0.20M HP-B-Cyclodextrin using MeOH as the diluent. The standard reference was prepared by dissolving silymarin in 10 mg/mL of DMSO and then diluted to 0.50 mg/mL using MeOH.
# The change of the saturated solubility of the various components of silymarin in each of the four types of samples can be seen in FIG. 4.
# The data shown in Table 6 is plotted in FIGS. 5 and 6. The change of the solubility of the various components of silymarin in each of the three samples can be seen in FIG. 5. The total mutual saturated solubility of all flavonolignan components can be seen in FIG. 6. […] The various components of silymarin also have increased solubility in the CAPTISOL® (0.2M) sample.
# [3] = Log D of silymarin components (octanol/buffer, HPLC); type: physicochemical; conditions: pH 7.4
# Procedure: as §1
# To determine the Log D of silymarin components, the silymarin extract (2 mg) was dissolved in 100% DMSO and then used for the experiment. Different buffers between pH ranges of 1.0 to 12 were prepared by using universal buffer stock containing 25 mM hydrochloric acid, 25 mM citric acid, 25 mM phosphoric acid, 30 mM boric acid and 20 mM sodium chloride. About 45 mL of universal buffer was titrated with Sodium hydroxide (5M) to obtain desired pH. A 10 μL of silymarin stock solution was spiked into Eppendorf tube containing 500 μL each of a buffer and presaturated octanol. This mixture was vortexed for 5 minutes and kept for shaking at room temperature. After 16 h, the mixture was centrifuged at 10,000 RPM for 30 minutes. After centrifugation buffer and octanol phases were separated, both phases were diluted with acetonitrile (1:1) and subject to HPLC analysis for quantitation of individual components of silymarin. The Log D values of each compound at a pH was determined by Log D (pH)=Log [Organic (peak area)/Aqueous (peak area)].
# [4] = Pharmacokinetic study in rat; type: in vivo; conditions: in vivo; for Tmax: Tmax (h)
# Procedure: The Silymarin-CAPTISOL® complex was administered to rat to test its pharmacokinetic properties.
# On arrival rats were housed individually in cages at animal care facility in a temperature and humidity controlled room with a 12 h:12 h (light:dark) cycles. The rats were provided with free access to food and water for one week before using for experimental purpose. The 12 rats were equally divided into three groups—Group I: silymarin-CAPTISOL® complex with a CAPTISOL® concentration of 100 mM for oral administration; Group II: silymarin suspension (Control); and Group III: silymarin complex with a CAPTISOL® concentration of 100 mM for intravenous administration. The animals were fasted overnight with free access to water. On the day of experiment, the rat was removed from animal care facility and brought to the procedure lab. The animal was weighed and appropriate dosing volume was determined. For oral administration, rat's head was held in place by gently extending the head back and supporting the lower body. The gavage tube was placed in the mouth and advanced along the lower palate till the esophagus, and the silymarin was administered through the tube. For intravenous administration, the silymarin-CAPTISOL® complex was administered by slow bolus intravenous injection into the tail vein. Approximately 200 μL blood was drawn into heparin coated tubes at pre dose, 0.15, 0.5, 1, 2, 4, 8, 10 and 24 h for oral group II and for intravenous group III. The sampling time points were predose, 0.12, 0.25, 0.5, 1, 2, 4, 8 and 24 h through the jugular vein catheter. Plasma was harvested by centrifuging the blood at 4000 RPM for 5 min and stored frozen at −80±10° C. until analysis.
# Stored plasma was thawed just before performing the silymarin components analysis. 200 μL of acetonitrile containing 0.1% of ammonia was added to 50 μL of plasma, and this mixture was vortexed for 5 min and centrifuged at 4° C. for 5 min at 10,000 RPM. After centrifugation, the supernatant was separated and injected into HPLC for analysis of silymarin constituents taxifolin, silydianin, silychristin, silybin A, silybin B, isosilybin A and isosilybin B.
# The plasma concentration-time curves of silybin A, silybin B, isosilybin A, and isosilybin B in the Silymarin-CAPTISOL® sample of Group I and the control sample (silymarin suspension) are respectively shown in FIGS. 20A to 20D.
solubility [1] [µg/mL],solubility (physchem) [µg/mL],solubility [2] [µg/mL],logD at 16 h [3],"AUC(0-t) ([4]; iv, AUC(0-2 h) (ng · h/mL)) [ng·h/mL]","Cmax ([4]; iv, Cmax (ng/mL)) [ng/mL]",Tmax ([4]; iv) [min],% Fabs of silymarin-CAPTISOL® complex compared with silymarin alone ([4]; po),AUC of Silymarin-CAPTISOL® complex compared with the control sample ([4]; po),AUC(0-2 h) ([4]; po) [ng·h/mL],Cmax of Silymarin-CAPTISOL® complex compared with the control sample ([4]; po),Tmax ([4]; po) [min],Compound
232,70,120,1.64,–,–,–,–,–,–,–,–,COc1cc([C@@H]2[C@H]3CO[C@@]4(O)C(=O)[C@@H]2C=C([C@H]2Oc5cc(O)cc(O)c5C(=O)[C@@H]2O)[C@@H]34)ccc1O [Silydianin]
18.8,40,40,2.47,1970,4160,4.2,higher % Fabs,higher AUC,150,higher Cmax,30,COc1cc([C@H]2Oc3ccc([C@H]4Oc5cc(O)cc(O)c5C(=O)[C@@H]4O)cc3O[C@@H]2CO)ccc1O [Isosilybin A]
